# From ChEMBL document CHEMBL4725253, “Discovery of quinoline-based irreversible BTK inhibitors” (Bioorg Med Chem Lett, 2020)
# pEC50, pIC50: −log10 of the molar value.
# Key:
# [1] = target: Epidermal growth factor receptor (Homo sapiens, UniProt P00533); assay: Inhibition of EGFR (unknown origin) expressed in baculovirus system using fluorescein labeled PDGFR-tide substrate peptide preincubated for 60 mins followed by ATP addition and measured after 60 mins by IMAP assay
# [2] = target: T1, Tyrosine-protein kinase TXK (Homo sapiens, UniProt P42681); assay: Inhibition of recombinant human N-terminal GST-tagged TXK (260 to 527 residues) expressed in baculovirus expression system using tyrosine-6 peptide as substrate preincubated for 1 hr in presence of ATP by Z'-LYTE assay
# T1 sequence (P42681 whole entry): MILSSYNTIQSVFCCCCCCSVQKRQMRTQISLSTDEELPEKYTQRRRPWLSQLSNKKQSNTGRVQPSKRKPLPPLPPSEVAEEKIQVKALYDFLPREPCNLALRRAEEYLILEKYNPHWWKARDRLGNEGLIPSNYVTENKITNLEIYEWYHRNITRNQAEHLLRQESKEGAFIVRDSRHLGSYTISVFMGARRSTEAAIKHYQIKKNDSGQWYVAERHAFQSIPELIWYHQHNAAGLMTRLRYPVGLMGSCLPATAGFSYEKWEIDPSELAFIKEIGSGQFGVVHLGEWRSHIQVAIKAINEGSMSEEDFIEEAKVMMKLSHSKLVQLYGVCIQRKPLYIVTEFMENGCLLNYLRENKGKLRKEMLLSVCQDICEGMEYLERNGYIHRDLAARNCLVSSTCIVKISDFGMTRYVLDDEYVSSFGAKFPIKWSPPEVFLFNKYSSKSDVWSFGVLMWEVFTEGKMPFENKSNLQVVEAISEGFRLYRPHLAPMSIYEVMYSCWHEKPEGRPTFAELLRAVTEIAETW
# [3] = target: Tyrosine-protein kinase Blk (Homo sapiens, UniProt P51451); assay: Inhibition of recombinant full length human His-tagged BLK cytoplasmic domain expressed in baculovirus expression system using tyrosine-1 peptide as substrate preincubated for 1 hr in presence of ATP by Z'-LYTE assay
# [4] = target: T2, Tyrosine-protein kinase BTK (Homo sapiens, UniProt Q06187); assay: Inhibition of human recombinant full length N-terminal His6-tagged BTK expressed in baculovirus infected Sf9 cells using fluorescein labeled Blk/Lyntide substrate preincubated with enzyme for 60 mins followed by further incubation with substrate and ATP for 120 mins by IMAP assay
# [5] = target: Receptor tyrosine-protein kinase erbB-4 (Homo sapiens, UniProt Q15303); assay: Inhibition of recombinant human N-terminal GST-tagged ERBB4 catalytic domain (708 to 993 residues) expressed in baculovirus expression system using tyrosine-1 peptide as substrate preincubated for 1 hr in presence of ATP by Z'-LYTE assay
# [6] = target: Receptor tyrosine-protein kinase erbB-2 (Homo sapiens, UniProt P04626); assay: Inhibition of His-tagged human recombinant ERBB2 (676 to 1255 residues) expressed in baculovirus expression system using Tyr 06 as substrate preincubated for 1 hr in presence of ATP by Z'-LYTE assay
# [7] = target: T2, Tyrosine-protein kinase BTK; assay: Inhibition of His-tagged recombinant human His-tagged full length BTK expressed in baculovirus expression system using Tyr01 peptide as substrate preincubated for 1 hr by Z'lyte assay
# [8] = target: T3, Tyrosine-protein kinase JAK3 (Homo sapiens, UniProt P52333); assay: Inhibition of recombinant human GST-tagged JAK3 catalytic domain (781 to 1124 residues) expressed in baculovirus expression system using tyrosine-6 peptide as substrate preincubated for 1 hr in presence of ATP by Z'-LYTE assay
# T3 sequence (P52333 whole entry): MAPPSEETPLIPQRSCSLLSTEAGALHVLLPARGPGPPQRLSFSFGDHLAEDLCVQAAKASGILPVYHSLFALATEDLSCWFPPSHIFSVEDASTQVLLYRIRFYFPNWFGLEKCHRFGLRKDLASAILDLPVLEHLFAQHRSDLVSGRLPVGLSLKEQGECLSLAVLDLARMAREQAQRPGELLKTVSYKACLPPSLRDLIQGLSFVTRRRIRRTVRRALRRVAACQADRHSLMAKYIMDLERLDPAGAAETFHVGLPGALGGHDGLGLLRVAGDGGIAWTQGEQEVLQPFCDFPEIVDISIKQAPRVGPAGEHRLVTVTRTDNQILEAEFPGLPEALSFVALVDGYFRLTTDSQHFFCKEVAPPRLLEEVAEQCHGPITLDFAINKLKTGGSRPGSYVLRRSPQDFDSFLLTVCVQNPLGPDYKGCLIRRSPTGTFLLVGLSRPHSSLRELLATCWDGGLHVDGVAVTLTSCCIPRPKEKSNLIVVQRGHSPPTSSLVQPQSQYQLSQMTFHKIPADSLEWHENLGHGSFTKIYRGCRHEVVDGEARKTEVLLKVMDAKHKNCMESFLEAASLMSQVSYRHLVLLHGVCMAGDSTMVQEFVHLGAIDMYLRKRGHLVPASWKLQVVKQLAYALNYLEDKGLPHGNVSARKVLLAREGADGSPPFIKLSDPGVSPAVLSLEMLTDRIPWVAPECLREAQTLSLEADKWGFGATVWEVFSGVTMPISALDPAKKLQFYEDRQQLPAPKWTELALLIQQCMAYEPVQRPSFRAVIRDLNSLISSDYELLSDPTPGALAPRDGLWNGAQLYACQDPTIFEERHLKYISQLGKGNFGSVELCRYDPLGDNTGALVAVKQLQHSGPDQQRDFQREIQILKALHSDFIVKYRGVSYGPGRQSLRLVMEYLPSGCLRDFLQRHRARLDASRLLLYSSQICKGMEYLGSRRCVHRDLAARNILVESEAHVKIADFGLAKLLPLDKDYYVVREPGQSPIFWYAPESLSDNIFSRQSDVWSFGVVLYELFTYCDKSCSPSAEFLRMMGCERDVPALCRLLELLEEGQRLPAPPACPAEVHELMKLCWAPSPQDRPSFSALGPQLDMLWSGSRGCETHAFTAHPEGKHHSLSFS
# [9] = Inhibition of goat anti-human IgM F(ab')-stimulated CD69 cell surface expression in human PBMC preincubated for 2 hrs followed by anti-human IgM stimulation for 18 hrs by flow cytometric analysis; assay type: functional, tissue-based
# Tyrosine-protein kinase Blk, sequence (P51451 whole entry, the tested form may be a part): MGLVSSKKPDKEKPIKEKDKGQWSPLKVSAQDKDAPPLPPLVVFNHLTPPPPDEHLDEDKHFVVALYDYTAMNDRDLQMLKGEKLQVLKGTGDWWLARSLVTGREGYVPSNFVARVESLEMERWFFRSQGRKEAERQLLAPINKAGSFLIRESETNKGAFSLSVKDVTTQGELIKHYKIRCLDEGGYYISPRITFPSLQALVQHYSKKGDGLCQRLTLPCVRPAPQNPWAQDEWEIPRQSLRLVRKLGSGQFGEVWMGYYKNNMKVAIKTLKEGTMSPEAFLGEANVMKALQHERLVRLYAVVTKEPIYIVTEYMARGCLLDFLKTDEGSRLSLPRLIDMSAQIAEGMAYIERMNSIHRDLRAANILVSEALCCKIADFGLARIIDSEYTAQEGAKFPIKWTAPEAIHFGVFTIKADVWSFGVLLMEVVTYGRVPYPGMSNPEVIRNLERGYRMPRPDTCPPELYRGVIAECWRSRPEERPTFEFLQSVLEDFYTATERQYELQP
# Epidermal growth factor receptor, sequence (P00533 whole entry, the tested form may be a part): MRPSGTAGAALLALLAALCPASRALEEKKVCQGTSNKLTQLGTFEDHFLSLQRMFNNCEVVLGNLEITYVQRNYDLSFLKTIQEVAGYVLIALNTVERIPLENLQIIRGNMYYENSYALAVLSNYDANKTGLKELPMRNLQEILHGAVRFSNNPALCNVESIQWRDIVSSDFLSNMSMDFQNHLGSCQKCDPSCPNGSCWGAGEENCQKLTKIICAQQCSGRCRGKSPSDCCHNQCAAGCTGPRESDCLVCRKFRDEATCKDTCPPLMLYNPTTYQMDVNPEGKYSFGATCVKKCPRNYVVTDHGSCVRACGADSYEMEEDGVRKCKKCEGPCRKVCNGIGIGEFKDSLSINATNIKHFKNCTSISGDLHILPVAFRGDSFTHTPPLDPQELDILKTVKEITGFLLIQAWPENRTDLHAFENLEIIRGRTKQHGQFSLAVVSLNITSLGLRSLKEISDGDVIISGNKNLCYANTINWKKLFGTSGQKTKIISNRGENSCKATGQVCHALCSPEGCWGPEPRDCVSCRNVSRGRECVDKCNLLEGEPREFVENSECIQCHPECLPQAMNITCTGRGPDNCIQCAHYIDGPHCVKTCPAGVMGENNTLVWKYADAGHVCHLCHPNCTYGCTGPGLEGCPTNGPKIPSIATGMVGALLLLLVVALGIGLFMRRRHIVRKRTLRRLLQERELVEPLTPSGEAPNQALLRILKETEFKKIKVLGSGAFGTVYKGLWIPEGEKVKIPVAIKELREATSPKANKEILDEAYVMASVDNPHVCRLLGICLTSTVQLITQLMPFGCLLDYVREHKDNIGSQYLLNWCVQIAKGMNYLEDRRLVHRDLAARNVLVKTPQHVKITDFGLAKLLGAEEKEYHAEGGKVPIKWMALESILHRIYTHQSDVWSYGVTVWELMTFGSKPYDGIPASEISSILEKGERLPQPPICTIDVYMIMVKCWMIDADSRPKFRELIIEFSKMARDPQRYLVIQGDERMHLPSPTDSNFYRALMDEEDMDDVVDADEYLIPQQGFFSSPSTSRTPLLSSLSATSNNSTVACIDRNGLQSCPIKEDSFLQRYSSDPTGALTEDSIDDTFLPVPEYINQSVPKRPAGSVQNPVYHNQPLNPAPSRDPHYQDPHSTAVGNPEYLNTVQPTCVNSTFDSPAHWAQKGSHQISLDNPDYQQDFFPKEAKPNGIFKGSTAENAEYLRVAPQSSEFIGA
# T2 sequence (Q06187 whole entry, the tested form may be a part): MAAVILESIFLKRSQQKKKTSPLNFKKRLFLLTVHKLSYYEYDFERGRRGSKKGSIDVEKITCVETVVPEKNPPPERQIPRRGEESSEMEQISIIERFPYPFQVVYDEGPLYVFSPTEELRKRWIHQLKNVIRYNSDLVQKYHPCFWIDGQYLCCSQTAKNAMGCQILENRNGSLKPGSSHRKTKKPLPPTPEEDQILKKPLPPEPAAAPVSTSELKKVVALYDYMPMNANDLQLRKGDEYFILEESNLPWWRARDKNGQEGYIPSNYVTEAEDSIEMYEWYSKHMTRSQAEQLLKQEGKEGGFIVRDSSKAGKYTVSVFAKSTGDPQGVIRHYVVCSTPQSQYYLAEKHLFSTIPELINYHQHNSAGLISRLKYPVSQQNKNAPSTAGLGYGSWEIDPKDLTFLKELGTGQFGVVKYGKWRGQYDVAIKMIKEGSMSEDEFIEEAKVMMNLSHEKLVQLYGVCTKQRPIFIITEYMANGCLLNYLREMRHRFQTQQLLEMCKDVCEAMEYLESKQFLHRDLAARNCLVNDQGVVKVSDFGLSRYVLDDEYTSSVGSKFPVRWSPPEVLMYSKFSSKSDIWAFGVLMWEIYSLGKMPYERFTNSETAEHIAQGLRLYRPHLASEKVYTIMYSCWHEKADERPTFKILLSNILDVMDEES
# Receptor tyrosine-protein kinase erbB-4, sequence (Q15303 whole entry, the tested form may be a part): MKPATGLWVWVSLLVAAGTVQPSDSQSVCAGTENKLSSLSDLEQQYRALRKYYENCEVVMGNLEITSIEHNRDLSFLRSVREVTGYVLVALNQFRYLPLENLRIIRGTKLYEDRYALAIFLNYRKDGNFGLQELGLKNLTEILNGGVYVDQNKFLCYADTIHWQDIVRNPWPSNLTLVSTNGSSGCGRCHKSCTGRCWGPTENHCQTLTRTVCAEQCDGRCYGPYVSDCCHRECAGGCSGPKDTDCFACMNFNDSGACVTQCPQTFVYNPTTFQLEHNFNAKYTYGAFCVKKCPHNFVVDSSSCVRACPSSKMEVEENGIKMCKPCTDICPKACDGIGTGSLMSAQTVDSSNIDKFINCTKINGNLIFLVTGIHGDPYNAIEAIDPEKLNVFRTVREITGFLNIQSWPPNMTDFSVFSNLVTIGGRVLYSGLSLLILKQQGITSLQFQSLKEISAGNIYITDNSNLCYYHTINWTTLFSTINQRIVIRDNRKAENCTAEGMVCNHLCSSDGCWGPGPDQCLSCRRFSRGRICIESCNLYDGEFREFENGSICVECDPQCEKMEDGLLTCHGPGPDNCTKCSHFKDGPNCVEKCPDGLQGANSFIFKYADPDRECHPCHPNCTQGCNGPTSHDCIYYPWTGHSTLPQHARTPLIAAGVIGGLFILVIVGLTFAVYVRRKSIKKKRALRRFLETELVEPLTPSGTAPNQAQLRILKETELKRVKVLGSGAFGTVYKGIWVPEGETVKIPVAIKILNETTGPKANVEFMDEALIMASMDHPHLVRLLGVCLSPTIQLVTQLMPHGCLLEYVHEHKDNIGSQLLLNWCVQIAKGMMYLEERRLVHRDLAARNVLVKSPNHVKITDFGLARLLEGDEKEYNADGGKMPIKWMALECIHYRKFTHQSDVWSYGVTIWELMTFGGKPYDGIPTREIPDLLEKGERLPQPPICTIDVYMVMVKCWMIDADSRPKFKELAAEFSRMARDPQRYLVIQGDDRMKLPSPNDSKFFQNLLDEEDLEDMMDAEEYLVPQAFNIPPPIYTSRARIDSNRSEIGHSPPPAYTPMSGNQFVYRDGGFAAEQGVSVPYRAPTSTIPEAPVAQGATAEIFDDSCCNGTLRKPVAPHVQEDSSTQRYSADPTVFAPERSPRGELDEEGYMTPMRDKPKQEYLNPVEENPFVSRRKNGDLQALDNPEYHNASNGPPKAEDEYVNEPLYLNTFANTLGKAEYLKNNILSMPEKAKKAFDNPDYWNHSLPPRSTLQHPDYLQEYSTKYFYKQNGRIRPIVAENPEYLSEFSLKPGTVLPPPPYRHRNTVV
# Receptor tyrosine-protein kinase erbB-2, sequence (P04626 whole entry, the tested form may be a part): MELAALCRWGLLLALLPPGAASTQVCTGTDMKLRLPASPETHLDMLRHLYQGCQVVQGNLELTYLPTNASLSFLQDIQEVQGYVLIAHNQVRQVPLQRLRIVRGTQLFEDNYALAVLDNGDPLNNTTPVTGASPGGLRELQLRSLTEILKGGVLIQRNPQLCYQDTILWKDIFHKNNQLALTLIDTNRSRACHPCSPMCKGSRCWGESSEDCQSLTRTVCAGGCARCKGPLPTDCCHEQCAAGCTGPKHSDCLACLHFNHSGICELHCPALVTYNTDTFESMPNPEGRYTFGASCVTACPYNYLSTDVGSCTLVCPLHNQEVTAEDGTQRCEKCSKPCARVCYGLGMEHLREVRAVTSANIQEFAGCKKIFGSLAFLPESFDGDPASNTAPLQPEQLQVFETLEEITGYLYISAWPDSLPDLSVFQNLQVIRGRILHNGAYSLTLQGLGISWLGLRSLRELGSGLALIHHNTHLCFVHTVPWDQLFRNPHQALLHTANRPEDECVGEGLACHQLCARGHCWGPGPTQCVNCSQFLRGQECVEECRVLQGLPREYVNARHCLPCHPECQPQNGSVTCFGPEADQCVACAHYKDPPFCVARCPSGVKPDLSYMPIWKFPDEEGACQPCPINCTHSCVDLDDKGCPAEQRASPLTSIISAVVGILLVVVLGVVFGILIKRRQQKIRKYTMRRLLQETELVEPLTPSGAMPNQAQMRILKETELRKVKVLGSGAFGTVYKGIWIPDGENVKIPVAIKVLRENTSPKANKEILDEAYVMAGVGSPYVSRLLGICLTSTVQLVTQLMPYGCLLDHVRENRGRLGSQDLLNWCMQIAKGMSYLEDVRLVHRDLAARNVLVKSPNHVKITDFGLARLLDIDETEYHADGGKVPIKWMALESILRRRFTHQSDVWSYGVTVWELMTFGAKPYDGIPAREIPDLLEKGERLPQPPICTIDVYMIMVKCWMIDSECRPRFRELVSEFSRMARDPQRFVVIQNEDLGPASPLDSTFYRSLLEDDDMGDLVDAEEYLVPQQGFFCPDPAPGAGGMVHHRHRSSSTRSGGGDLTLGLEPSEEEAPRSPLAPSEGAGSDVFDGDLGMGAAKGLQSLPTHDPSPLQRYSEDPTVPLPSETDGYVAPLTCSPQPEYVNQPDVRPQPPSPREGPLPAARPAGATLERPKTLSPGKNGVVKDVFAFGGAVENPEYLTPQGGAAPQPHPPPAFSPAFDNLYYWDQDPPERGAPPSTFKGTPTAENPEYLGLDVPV
Structure (SMILES),pIC50 [1],pIC50 [2],pIC50 [3],pIC50 [4],pIC50 [5],pIC50 [6],pIC50 [7],pIC50 [8],pEC50 [9]
C=CC(=O)Nc1ccc2nccc(Oc3ccc(C(=O)Nc4cc(CC)ccn4)cc3)c2c1,6.70,6.53,7.67,8.92,7.80,6.57,8.40,6.08,7.82
CC#CC(=O)Nc1cc2c(Oc3ccc(C(=O)Nc4ccccn4)cc3)ccnc2cc1OCCN1CCOCC1,< 6.00,6.64,7.14,9.27,7.43,< 6.00,8.08,< 6.00,8.39
COc1cc2nccc(Oc3ccc(C(=O)Nc4ccccn4)cc3)c2cc1NC(=O)C#CCCN1CCOCC1,7.48,7.72,8.08,8.80,6.05,7.39,8.82,6.76,8.74
